Experiments:
Format in all cases: in vivo
Botrytis cinerea = assay: Test F: tomato botrytis, preventive spray on tomato seedlings, visual disease rating; settings: for pest or weed control at 200 ppm: Botrytis cinerea, 120 h
Procedure, shortened: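 Tomato seedlings sprayed to run-off with compound suspended in acetone/water (50/50) plus 250 ppm Trem 014, at 200 ppm (≈500 g/ha) or 40 ppm where marked. Inoculated next day with B. cinerea spores, 48 h saturated atmosphere at 20 °C, then 3 days at 24 °C. Visual rating, 0–100% disease control relative to controls.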

Septoria tritici = assay: Test C: wheat leaf blotch, preventive spray on wheat seedlings, visual disease rating; settings: for pest or weed control at 200 ppm: Zymoseptoria tritici, 504 h
Procedure, shortened: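 Wheat seedlings sprayed to run-off with compound in acetone/water plus 250 ppm surfactant at 200 ppm (≈500 g/ha), or 40 ppm where marked; inoculated with Septoria tritici next day. Held saturated at 20 °C for 48 h, then 19 days at 20 °C; disease control rated visually 0–100 versus controls.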

Rhizoctonia oryzae = assay: Test G: turf brown patch, preventive spray on creeping bent grass seedlings, visual disease rating; settings: for pest or weed control at 200 ppm: Waitea circinata, in Agrostis stolonifera, 120 h
Excerpt: (§1) General protocol for preparing test suspensions for Tests A-H: The test compounds were first dissolved in acetone in an amount equal to 3% of the final volume and then suspended at the desired concentration (in ppm) in acetone and purified water (50/50 mix) containing 250 ppm of the surfactant Trem® 014 (polyhydric alcohol esters). The resulting test suspensions were then used in tests A-H. Spraying a 200 ppm test suspension to the point of run-off on the test plants was the equivalent of a rate of 500 g/ha.
The test suspension was sprayed to the point of run-off on creeping bent grass seedlings. The following day the seedlings were inoculated with a spore suspension of Rhizoctonia oryzae (the causal agent of turf brown patch) and incubated in a saturated atmosphere at 27° C. for 48 h, and then moved to a growth chamber at 27° C. for 3 days, after which time disease ratings were visually made.
(§2) Results for Tests A-H are given in Table A. In the table, a rating of 100 indicates 100% disease control and a rating of 0 indicates no disease control (relative to the controls). A dash (-) indicates no test results. All results are for compounds tested at 200 ppm except where the compound number is followed by “*” which indicates the compound was tested at 40 ppm.

[1] = test system: Erysiphe graminis f. sp. tritici; assay: Test A: wheat powdery mildew, preventive spray on wheat seedlings, visual disease rating; settings: for pest or weed control at 200 ppm: Blumeria graminis, 192 h
Procedure, shortened: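 Acetone/water (50/50) suspension with 250 ppm surfactant sprayed to run-off on wheat seedlings (200 ppm ≈ 500 g/ha); inoculated next day with E. graminis spore dust. Incubated 8 days at 20° C, then visually rated 0–100% disease control versus untreated controls; tests at 200 ppm or 40 ppm.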

Septoria nodorum = assay: Test D: wheat glume blotch, preventive spray on wheat seedlings, visual disease rating; settings: for pest or weed control at 200 ppm: Parastagonospora nodorum, 216 h
Procedure, shortened: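 Compounds in 3% acetone, then 50/50 acetone–water with 250 ppm Trem 014, sprayed to run-off at 200 ppm (500 g/ha; some at 40 ppm) one day before spore inoculation. Held 48 h saturated at 20 °C, then 7 days at 20 °C; visual rating as % disease control vs untreated (0–100).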

Plasmopara viticola = assay: Test H: grape downy mildew, spray after inoculation of grape seedlings, visual disease rating; settings: for pest or weed control at 200 ppm: Plasmopara viticola, 192 h
Excerpt: as §1
Grape seedlings were inoculated with a spore suspension of Plasmopara viticola (the causal agent of grape downy mildew) and incubated in a saturated atmosphere at 20° C. for 24 h. After a short drying period, the test suspension was sprayed to the point of run-off on the grape seedlings, and then moved to a growth chamber at 20° C. for 6 days, after which time the test units were placed back into a saturated atmosphere at 20° C. for 24 h. Upon removal, disease ratings were visually made.
as §2

Alternaria solani = assay: Test E: tomato early blight, preventive spray on tomato seedlings, visual disease rating; settings: for pest or weed control at 200 ppm: Alternaria solani, 168 h
Procedure, shortened: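 Seedlings sprayed to run-off with compound in acetone/water plus 250 ppm Trem 014 (200 ppm ≈ 500 g/ha), inoculated with spores next day. Held 48 h saturated at 27 °C, then 5 days at 20 °C; visual rating 0–100% disease control relative to controls.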

[2] = test system: Puccinia recondite f. sp. tritici; assay: Test B: wheat leaf rust, preventive spray on wheat seedlings, visual disease rating; settings: for pest or weed control at 200 ppm: 192 h
Procedure, shortened: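 Wheat seedlings were sprayed to run-off with compound suspension, 200 ppm (≈500 g/ha) or 40 ppm where marked, containing surfactant in acetone/water. Inoculation with Puccinia recondita spores followed one day later, then 24 h in saturated humidity at 20° C and 7 days at 20° C. Disease control was rated visually, 0–100% versus controls.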

[3] = 200 ppm, 100 = 100% disease control, 0 = no control
[4] = 40 ppm (compound number followed by *)

Row | SMILES | Test F rating (% disease control) (Botrytis cinerea; [3]) | Test C rating (% disease control) (Septoria tritici; [3]) | Test G rating (% disease control) (Rhizoctonia oryzae; [3]) | Test A rating (% disease control) [1, 3] | Test D rating (% disease control) (Septoria nodorum; [3]) | Test H rating (% disease control) (Plasmopara viticola; [3]) | Test E rating (% disease control) (Alternaria solani; [3]) | Test B rating (% disease control) [2, 3] | also measured
1 | COc1cc(OC)cc(-c2c(-c3ccccc3)c(C)nc(C)c2-c2ccc(F)cc2)c1 [Compound 22] | 99% | 95% | 0% | 78% | 0% | 0% | 0% | 55% | –
2 | COc1cc(OC)cc(-c2c(C(C)C)cnc(C)c2-c2ccc(F)cc2)c1 [Compound 19, 4-(3,5-dimethoxyphenyl)-3-(4-fluorophenyl)-2-methyl-5-(1-methylethyl)pyridine] | – | – | – | – | – | – | – | – | pest or weed control at 200 ppm (Botrytis cinerea; [3]): 99%; pest or weed control at 200 ppm (Septoria tritici; [3]): 100%; pest or weed control at 200 ppm (Rhizoctonia oryzae; [3]): 99%; pest or weed control at 200 ppm [1, 3]: 99%; pest or weed control at 200 ppm (Septoria nodorum; [3]): 0%; pest or weed control at 200 ppm (Plasmopara viticola; [3]): 0%; pest or weed control at 200 ppm (Alternaria solani; [3]): 99%; pest or weed control at 200 ppm [2, 3]: 99%
3 | COc1cc(OC)cc(-c2c(C(C)=O)cnc(C)c2-c2c(F)cccc2F)c1 [Compound 41] | 98% | 99% | 99% | 100% | 0% | 0% | 99% | 98% | –
4 | COc1cc(OC)cc(-c2c(-c3ccc(F)cc3F)cnc(C)c2-c2ccc(F)cc2)c1 [Compound 38] | 98% | 100% | 56% | 95% | 0% | 0% | 87% | 80% | –
5 | COc1cc(OC)cc(-c2c(-c3ccccc3F)c[n+]([O-])c(C)c2-c2ccc(F)cc2)c1 [Compound 39, 4-(3,5-dimethoxyphenyl)-5-(2-fluorophenyl)-3-(4-fluorophenyl)-2-methylpyridine 1-oxide] | – | – | – | – | – | – | – | – | pest or weed control at 200 ppm (Botrytis cinerea; [3]): 94%; pest or weed control at 200 ppm (Septoria tritici; [3]): 100%; pest or weed control at 200 ppm (Rhizoctonia oryzae; [3]): 35%; pest or weed control at 200 ppm [1, 3]: 98%; pest or weed control at 200 ppm (Septoria nodorum; [3]): 100%; pest or weed control at 200 ppm (Plasmopara viticola; [3]): 0%; pest or weed control at 200 ppm (Alternaria solani; [3]): 100%; pest or weed control at 200 ppm [2, 3]: 100%
6 | COc1cc(OC)cc(-c2c(-c3ccccc3F)cnc(C)c2-c2ccccc2)c1 [Compound 32] | 99% | 99% | 99% | 98% | 0% | 0% | 59% | 96% | –
7 | CCOC(=O)c1cnc(C)c(-c2ccccc2F)c1-c1cc(OC)cc(OC)c1 [Compound 20] | 99% | 100% | 0% | 98% | 0% | 53% | 0% | 90% | –
8 | CCOC(=O)c1cnc(CC)c(-c2ccccc2)c1-c1cc(OC)cc(OC)c1 [Compound 31] | 41% | 80% | 0% | 0% | 0% | 0% | 0% | 0% | –
9 | COc1cc(OC)cc(-c2c(C(C)=O)cnc(C)c2-c2ccccc2F)c1 [Compound 17] | 99% | 100% | 60% | 96% | 0% | 0% | 46% | 98% | –
10 | CNC(=O)c1cnc(C)c(-c2ccccc2)c1-c1cc(OC)cc(OC)c1 [Compound 9] | 37% | 86% | 0% | 94% | 0% | 0% | 99% | 0% | –
11 | COc1cc(OC)cc(-c2c(-c3ccccc3)c(C)[n+]([O-])c(C)c2-c2ccccc2F)c1 [Compound 24] | – | – | – | – | – | – | – | – | Test F rating (% disease control) (Botrytis cinerea; [4]): 99%; Test C rating (% disease control) (Septoria tritici; [4]): 97%; Test G rating (% disease control) (Rhizoctonia oryzae; [4]): 0%; Test A rating (% disease control) [1, 4]: 91%; Test D rating (% disease control) (Septoria nodorum; [4]): 0%; Test H rating (% disease control) (Plasmopara viticola; [4]): 0%; Test E rating (% disease control) (Alternaria solani; [4]): 76%; Test B rating (% disease control) [2, 4]: 95%
12 | C=C(C)c1cnc(C)c(-c2ccc(F)cc2)c1-c1cc(OC)cc(OC)c1 [Compound 16, 4-(3,5-dimethoxyphenyl)-3-(4-fluorophenyl)-2-methyl-5-(1-methylethenyl)pyridine] | – | – | – | – | – | – | – | – | pest or weed control at 200 ppm (Botrytis cinerea; [3]): 99%; pest or weed control at 200 ppm (Septoria tritici; [3]): 100%; pest or weed control at 200 ppm (Rhizoctonia oryzae; [3]): 99%; pest or weed control at 200 ppm [1, 3]: 99%; pest or weed control at 200 ppm (Septoria nodorum; [3]): 73%; pest or weed control at 200 ppm (Plasmopara viticola; [3]): 0%; pest or weed control at 200 ppm (Alternaria solani; [3]): 99%; pest or weed control at 200 ppm [2, 3]: 100%

Reference: patent US20110092544A1, “FUNGICIDAL PYRIDINES” (E.I. DU PONT DE nemours and company, priority 2008, published 2011)
